Source: patent publication US20230143604A1, “QW DOSING OF GIP RECEPTOR AGONIST PEPTIDE COMPOUNDS AND USES THEREOF” (TAKEDA PHARMACEUTICAL COMPANY LIMITED, priority 2020, published 2023)
Where two headings read alike, the source gives them in different places.

Tests used:
[1] = biological target: T1, human GLP-1R (Homo sapiens, UniProt P43220); assay: Human GLP1R agonist activity, intracellular cAMP accumulation; type: cell-based; conditions: HEK-293T cells overexpressing human GLP-1R, 1 hr
T1 construct: HEK-293T cells overexpressing full-length human GLP-1R; FLAG (N); host or cells: HEK-293T
T1 sequence (P43220 24-463): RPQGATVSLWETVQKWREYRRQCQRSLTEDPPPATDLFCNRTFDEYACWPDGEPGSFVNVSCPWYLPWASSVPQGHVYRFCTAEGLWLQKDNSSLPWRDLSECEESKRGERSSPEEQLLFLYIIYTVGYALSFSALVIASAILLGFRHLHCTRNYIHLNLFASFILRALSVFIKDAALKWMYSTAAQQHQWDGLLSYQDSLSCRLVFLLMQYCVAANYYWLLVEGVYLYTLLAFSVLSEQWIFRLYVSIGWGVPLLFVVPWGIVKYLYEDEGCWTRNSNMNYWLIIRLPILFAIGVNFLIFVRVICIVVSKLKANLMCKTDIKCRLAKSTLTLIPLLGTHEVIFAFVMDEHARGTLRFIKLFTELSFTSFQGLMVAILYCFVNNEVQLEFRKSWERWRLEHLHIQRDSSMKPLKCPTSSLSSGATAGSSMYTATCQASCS
Description: Cells are cultured per the manufacturer's protocol in DMEM with 10% fetal bovine serum and 1 μg/mL puromycin and stored in frozen aliquots to be used as assay ready cells. On the day of the assay, cells are removed from frozen storage, washed two times in 1× Kreb's Ringer Buffer (Zenbio, Research Triangle Park, N.C.), and re-suspended to a concentration of 4×10^5 cells/mL in 1× Kreb's Ringer Buffer. […] Cells are incubated with test compound for 1 hr at room temperature in the dark, and cAMP accumulation is measured using the Cisbio HiRange cAMP assay kit (Bedford, Mass.) per the manufacturer's protocol. Anti-cAMP antibody and d2-cAMP tracer reagents diluted in lysis/detection buffer are incubated in the dark for 1 hr, and results are measured on an Envision plate reader (Perkin Elmer, Waltham, Mass.). Data is normalized using 1 nm GLP-1 as 100% activity, and DMSO alone as 0% activity.

[2] = physchem
How it was run: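 Solubility at pH 7.4 determined by stepwise addition of 200 mM phosphate buffer in 100 μL increments to 3 mg peptide, mixing briefly each time, until no insoluble material remained, then measured by liquid chromatography.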

[3] = read-out: Human GLP1R cAMP EC50, HEK293T

Compound	EC50 [1, 3]	solubility ([2]; pH 7.4)	solubility ([2]; pH 7.4, aqueous buffer)	EC50 ([1]; Human GLP1R cAMP EC50, HEK293T (nM))	solubility ([2]; pH 7.4, aqueous buffer, pH 7.4 Phosphate Buffer - Solubility, 200 mM Phosphate buffer pH 7.4)	solubility ([2]; pH 7.4, solubility in phosphate buffer at pH 7.4, 200 mM phosphate buffer pH 7.4)
CC[C@H](C)[C@H](NC(=O)[C@H](CO)NC(=O)[C@H](Cc1ccc(O)cc1)NC(=O)[C@H](CC(=O)O)NC(=O)[C@H](CO)NC(=O)[C@@H](NC(=O)[C@H](Cc1ccccc1)NC(=O)[C@@H](NC(=O)CNC(=O)[C@H](CCC(=O)O)NC(=O)C(C)(C)NC(=O)[C@H](Cc1ccc(O)cc1)NC)[C@@H](C)O)[C@@H](C)CC)C(=O)N[C@@H](C)C(=O)N[C@@H](CC(C)C)C(=O)N[C@@H](CC(=O)O)C(=O)N[C@@H](CCCNC(=N)N)C(=O)N[C@@H](CCCCNC(=O)CNC(=O)CNC(=O)CNC(=O)CNC(=O)CNC(=O)CCCCCCCCCCCCCCCCC(=O)O)C(=O)N[C@@H](C)C(=O)N[C@@H](CCC(N)=O)C(=O)NC(C)(C)C(=O)N[C@@H](CC(=O)O)C(=O)N[C@@H](Cc1ccccc1)C(=O)N[C@H](C(=O)N[C@@H](CC(N)=O)C(=O)N[C@@H](Cc1c[nH]c2ccccc12)C(=O)N[C@@H](CC(C)C)C(=O)N[C@@H](CC(C)C)C(=O)N[C@@H](C)C(=O)N[C@@H](CCC(N)=O)C(=O)N[C@@H](CO)C(=O)N1CCC[C@H]1C(=O)NCC(=O)O)C(C)C [Compound 113]	13.5 nM	≥ 15 mg/mL	≥ 30 mg/mL			
CC[C@H](C)[C@H](NC(=O)[C@H](Cc1ccccc1)NC(=O)[C@@H](NC(=O)CNC(=O)[C@H](CCC(=O)O)NC(=O)C(C)(C)NC(=O)[C@H](Cc1ccc(O)cc1)NC)[C@@H](C)O)C(=O)N[C@@H](CO)C(=O)N[C@@H](CC(=O)O)C(=O)N[C@@H](Cc1ccc(O)cc1)C(=O)N[C@@H](CO)C(=O)N[C@H](C(=O)NC(C)(C)C(=O)N[C@@H](CCCCNC(=O)CNC(=O)CNC(=O)CNC(=O)CNC(=O)CNC(=O)CCCCCCCCCCCCCCCC(=O)O)C(=O)N[C@@H](CC(=O)O)C(=O)N[C@@H](CCCNC(=N)N)C(=O)NC(C)(C)C(=O)N[C@@H](C)C(=O)N[C@@H](CCC(N)=O)C(=O)NC(C)(C)C(=O)N[C@@H](CC(=O)O)C(=O)N[C@@H](Cc1ccccc1)C(=O)N[C@H](C(=O)N[C@@H](CC(N)=O)C(=O)N[C@@H](Cc1c[nH]c2ccccc12)C(=O)N[C@@H](CC(C)C)C(=O)N[C@@H](CC(C)C)C(=O)N[C@@H](C)C(=O)N[C@@H](CCC(N)=O)C(=O)N[C@@H](CCCNC(=N)N)C(=O)NCC(=O)O)C(C)C)[C@@H](C)CC [Compound 98]	112 nM	≥ 15 mg/mL	≥ 30 mg/mL			
CC[C@H](C)[C@H](NC(=O)[C@H](CO)NC(=O)[C@H](Cc1ccc(O)cc1)NC(=O)[C@H](CC(=O)O)NC(=O)[C@H](CO)NC(=O)[C@@H](NC(=O)[C@H](Cc1ccccc1)NC(=O)[C@@H](NC(=O)CNC(=O)[C@H](CCC(=O)O)NC(=O)C(C)(C)NC(=O)[C@H](Cc1ccc(O)cc1)NC)[C@@H](C)O)[C@@H](C)CC)C(=O)N[C@@H](C)C(=O)N[C@@H](CCCCNC(=O)CNC(=O)CNC(=O)CNC(=O)CNC(=O)CNC(=O)CCCCCCCCCCCCCCCCCCC(=O)O)C(=O)N[C@@H](CC(=O)O)C(=O)N[C@@H](CCCNC(=N)N)C(=O)NC(C)(C)C(=O)N[C@@H](C)C(=O)N[C@@H](CCC(N)=O)C(=O)NC(C)(C)C(=O)N[C@@H](CC(N)=O)C(=O)N[C@@H](Cc1ccccc1)C(=O)N[C@H](C(=O)N[C@@H](CC(N)=O)C(=O)N[C@@H](Cc1c[nH]c2ccccc12)C(=O)N[C@@H](CC(C)C)C(=O)N[C@@H](CC(C)C)C(=O)N[C@@H](C)C(=O)N[C@@H](CCC(N)=O)C(=O)N[C@@H](CO)C(=O)N1CCC[C@H]1C(=O)N[C@@H](CO)C(=O)N[C@@H](CO)C(=O)NCC(=O)N[C@@H](C)C(=O)N1CCC[C@H]1C(=O)N1CCC[C@H]1C(=O)N1CCC[C@H]1C(=O)N[C@@H](CO)C(=O)O)C(C)C [Compound 112]				21.4 nM	≥ 30 mg/mL	≥ 15 mg/mL
CC[C@H](C)[C@H](NC(=O)[C@H](CO)NC(=O)[C@H](Cc1ccc(O)cc1)NC(=O)[C@H](CC(=O)O)NC(=O)[C@H](CO)NC(=O)[C@@H](NC(=O)[C@H](Cc1ccccc1)NC(=O)[C@@H](NC(=O)CNC(=O)[C@H](CCC(=O)O)NC(=O)C(C)(C)NC(=O)[C@H](Cc1ccc(O)cc1)NC)[C@@H](C)O)[C@@H](C)CC)C(=O)N[C@@H](C)C(=O)N[C@@H](CCCCNC(=O)CNC(=O)CNC(=O)CNC(=O)CNC(=O)CNC(=O)CCCCCCCCCCCCCCCCC(=O)O)C(=O)N[C@@H](CC(=O)O)C(=O)N[C@@H](CO)C(=O)NC(C)(C)C(=O)N[C@@H](C)C(=O)N[C@@H](CCC(N)=O)C(=O)NC(C)(C)C(=O)N[C@@H](CC(=O)O)C(=O)N[C@@H](Cc1ccccc1)C(=O)N[C@H](C(=O)N[C@@H](CC(N)=O)C(=O)N[C@@H](Cc1c[nH]c2ccccc12)C(=O)N[C@@H](CC(C)C)C(=O)N[C@@H](CC(C)C)C(=O)N[C@@H](C)C(=O)N[C@@H](CCC(N)=O)C(=O)N[C@@H](CCCCN)C(=O)NCC(=O)O)C(C)C [Compound 75]	550 nM	≥ 15 mg/mL	≥ 30 mg/mL			
CC[C@H](C)[C@H](NC(=O)[C@H](CO)NC(=O)[C@H](Cc1ccc(O)cc1)NC(=O)[C@H](CC(=O)O)NC(=O)[C@H](CO)NC(=O)[C@@H](NC(=O)[C@H](Cc1ccccc1)NC(=O)[C@@H](NC(=O)CNC(=O)[C@H](CCC(=O)O)NC(=O)C(C)(C)NC(=O)[C@H](Cc1ccc(O)cc1)NC)[C@@H](C)O)[C@@H](C)CC)C(=O)N[C@@H](C)C(=O)N[C@@H](CCCCNC(=O)CNC(=O)CNC(=O)CNC(=O)CNC(=O)CNC(=O)CCCCCCCCCCCCCCCCC(=O)O)C(=O)N[C@@H](CC(=O)O)C(=O)N[C@@H](CCCCN)C(=O)NC(C)(C)C(=O)N[C@@H](C)C(=O)N[C@@H](CCC(N)=O)C(=O)NC(C)(C)C(=O)N[C@@H](CC(=O)O)C(=O)N[C@@H](Cc1ccccc1)C(=O)N[C@H](C(=O)N[C@@H](CC(N)=O)C(=O)N[C@@H](Cc1c[nH]c2ccccc12)C(=O)N[C@@H](CC(C)C)C(=O)N[C@@H](CC(C)C)C(=O)N[C@@H](C)C(=O)N[C@@H](CCC(N)=O)C(=O)N[C@@H](CCCCN)C(=O)NCC(=O)O)C(C)C [Compound 76]	28.8 nM	≥ 15 mg/mL	≥ 30 mg/mL			
CC[C@H](C)[C@H](NC(=O)[C@H](CO)NC(=O)[C@H](Cc1ccc(O)cc1)NC(=O)[C@H](CC(=O)O)NC(=O)[C@H](CO)NC(=O)[C@@H](NC(=O)[C@H](Cc1ccccc1)NC(=O)[C@@H](NC(=O)CNC(=O)[C@H](CCC(=O)O)NC(=O)C(C)(C)NC(=O)[C@H](Cc1ccc(O)cc1)NC)[C@@H](C)O)[C@@H](C)CC)C(=O)N[C@@H](C)C(=O)N[C@@H](CCCCNC(=O)CNC(=O)CNC(=O)CNC(=O)CNC(=O)CNC(=O)CCCCCCCCCCCCCCCCC(=O)O)C(=O)N[C@@H](CC(=O)O)C(=O)N[C@@H](CO)C(=O)NC(C)(C)C(=O)N[C@@H](C)C(=O)N[C@@H](CCC(N)=O)C(=O)NC(C)(C)C(=O)N[C@@H](CC(=O)O)C(=O)N[C@@H](Cc1ccccc1)C(=O)N[C@H](C(=O)N[C@@H](CC(N)=O)C(=O)N[C@@H](Cc1c[nH]c2ccccc12)C(=O)N[C@@H](CC(C)C)C(=O)N[C@@H](CC(C)C)C(=O)N[C@@H](C)C(=O)N[C@@H](CCC(N)=O)C(=O)N[C@@H](CO)C(=O)NCC(=O)O)C(C)C [Compound 60]	100 nM	≥ 15 mg/mL	≥ 30 mg/mL			
